The source of these data is US9926324B2, “Heteroaromatic compounds as PI3 kinase modulators and methods of use” (Calitor Sciences, LLC, priority 2012, dated 2018).

Data set [1] in a line: Pharmacokinetic profiles in rats after intravenous and oral administration. The note with it: for F: oral dose generally 5 or 10 mg/kg; for AUC(0-t) / half-life / Vd: rat, plasma; for Vd: read-out: Vss. The format is in vivo. The protocol:
The compounds disclosed herein are assessed in pharmacokinetic studies in mice, rats, dogs or monkeys. The compounds are administered as a water solution, 2% HPMC+1% TWEEN® 80 in water solution, 5% DMSO+5% solutol in saline, 4% MC suspension or capsule. For the intravenous administration, the animals are generally given at 1 or 2 mg/kg dose. For the oral (p.o.) dosing, mice and rats are generally given 5 or 10 mg/kg dose, and dogs and monkeys are generally given 10 mg/kg dose. The blood samples (0.3 mL) are drawn at 0.25, 0.5, 1.0, 2.0, 3.0, 4.0, 6.0, 8.0, 12 and 24 h time points or 0.083, 0.25, 0.5, 1.0, 2.0, 4.0, 6.0, 8.0 and 24 h time points and centrifuged at 3,000 or 4000 rpm for 2 to 10 min. The plasma solutions are collected, stored at −20° C. or −70° C. until analyzed by LC/MS/MS as described above.

For a further data set, the target named is T1, PI3K p110α/p85α (h) (Homo sapiens, UniProt P42336).
T1 construct: purchased Millipore UK Ltd (assay service)
T1 sequence (P42336 whole entry): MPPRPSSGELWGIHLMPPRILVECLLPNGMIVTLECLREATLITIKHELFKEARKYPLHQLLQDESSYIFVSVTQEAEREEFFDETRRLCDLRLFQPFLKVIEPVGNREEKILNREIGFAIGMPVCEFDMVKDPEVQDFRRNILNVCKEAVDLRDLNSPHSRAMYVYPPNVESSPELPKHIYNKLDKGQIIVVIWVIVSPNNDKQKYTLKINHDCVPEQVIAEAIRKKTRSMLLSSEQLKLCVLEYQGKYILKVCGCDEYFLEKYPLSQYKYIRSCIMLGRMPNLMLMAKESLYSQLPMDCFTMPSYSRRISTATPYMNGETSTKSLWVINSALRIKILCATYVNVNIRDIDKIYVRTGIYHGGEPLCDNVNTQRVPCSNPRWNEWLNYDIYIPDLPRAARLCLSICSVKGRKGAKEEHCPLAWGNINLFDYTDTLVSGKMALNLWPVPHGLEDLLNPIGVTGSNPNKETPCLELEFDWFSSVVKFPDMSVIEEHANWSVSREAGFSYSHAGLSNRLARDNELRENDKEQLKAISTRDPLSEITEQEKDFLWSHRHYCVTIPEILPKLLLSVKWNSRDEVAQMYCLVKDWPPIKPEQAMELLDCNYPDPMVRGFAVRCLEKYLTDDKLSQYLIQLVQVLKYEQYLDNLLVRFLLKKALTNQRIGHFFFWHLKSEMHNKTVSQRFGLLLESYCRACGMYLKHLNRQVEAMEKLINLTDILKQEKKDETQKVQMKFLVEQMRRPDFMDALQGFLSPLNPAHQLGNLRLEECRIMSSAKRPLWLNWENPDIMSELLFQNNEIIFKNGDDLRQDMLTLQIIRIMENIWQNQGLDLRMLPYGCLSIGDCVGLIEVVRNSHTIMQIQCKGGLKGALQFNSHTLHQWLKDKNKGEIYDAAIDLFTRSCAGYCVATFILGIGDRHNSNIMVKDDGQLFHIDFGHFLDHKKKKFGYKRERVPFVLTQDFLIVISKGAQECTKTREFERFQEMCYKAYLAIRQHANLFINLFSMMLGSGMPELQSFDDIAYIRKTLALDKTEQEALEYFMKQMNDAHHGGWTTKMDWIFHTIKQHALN
T1 sequence (P27986 whole entry partner): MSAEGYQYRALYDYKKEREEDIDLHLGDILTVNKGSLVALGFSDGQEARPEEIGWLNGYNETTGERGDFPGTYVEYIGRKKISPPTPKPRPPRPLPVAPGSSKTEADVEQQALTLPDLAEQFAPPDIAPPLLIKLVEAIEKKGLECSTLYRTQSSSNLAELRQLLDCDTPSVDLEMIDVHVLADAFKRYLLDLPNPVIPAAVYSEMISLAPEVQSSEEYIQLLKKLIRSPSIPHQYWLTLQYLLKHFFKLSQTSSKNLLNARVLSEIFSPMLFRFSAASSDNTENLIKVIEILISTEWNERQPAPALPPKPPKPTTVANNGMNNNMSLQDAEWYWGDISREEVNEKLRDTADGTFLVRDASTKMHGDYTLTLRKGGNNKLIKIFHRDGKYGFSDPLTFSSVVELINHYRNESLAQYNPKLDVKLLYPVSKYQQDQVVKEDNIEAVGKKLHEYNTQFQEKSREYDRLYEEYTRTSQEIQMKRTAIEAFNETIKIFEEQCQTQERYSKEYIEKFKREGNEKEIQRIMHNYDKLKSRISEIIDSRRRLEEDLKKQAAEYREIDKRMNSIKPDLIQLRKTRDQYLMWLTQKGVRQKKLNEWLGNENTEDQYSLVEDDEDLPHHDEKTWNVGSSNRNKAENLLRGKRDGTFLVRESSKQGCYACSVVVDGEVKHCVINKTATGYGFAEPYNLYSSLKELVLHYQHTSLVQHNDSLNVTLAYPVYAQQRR
The experiment in a line: PI3K p110α/p85α (h) non-radioactive HTRF assay. The data set is classed as biochemical. On the procedure: PI3K p110α/p85α (h) is incubated in assay buffer containing 10 μM phosphatidylinositol 4,5-bisphosphate and MgATP (concentration as required). The reaction is initiated by the addition of the ATP solution. After incubation for 30 minutes at room temperature, the reaction is stopped by the addition of stop solution containing EDTA and biotinylated phosphatidylinositol-3,4,5-trisphosphate. Finally, detection buffer is added, which contains europium-labelled anti-GST monoclonal antibody, GST-tagged GRP1 PH domain and streptavidin allophycocyanin. The plate is then read in timeresolved fluorescence mode and the homogenous time-resolved fluorescence (HTRF) signal is determined according to the formula HTRF=10000×(Em665 nm/Em620 nm).
The kinase assays described herein were performed at Millipore UK Ltd, Dundee Technology Park, Dundee DD2 1SW, UK.
For orientation: Time-resolved FRET reads energy transfer from a long-lived donor to a nearby acceptor.

A short description of data set [2]: Compound stability in rat liver microsomes. The format is in vitro ADME. The note with it: for half-life at 5 μM / CLint scaled at 5 μM: pH 7.4; for half-life at 5 μM: read-out: Rat T1/2; for CLint scaled at 5 μM: rat liver microsomes, in vivo CLint extrapolated. On the procedure: (§1) Human or rat liver microsomes incubations were conducted in duplicate in polypropylene tubes. The typical incubation mixtures consisted of human or rat liver microsomes (0.5 mg protein/mL), compounds of interest (5 μM) and NADPH (1.0 mM) in a total volume of 200 μL potassium phosphate buffer (PBS, 100 mM, pH=7.4). Compounds were dissolved in DMSO and diluted with PBS such that the final concentration of DMSO was 0.05%. The enzymatic reactions were commenced with the addition of […] after a 3-min preincubation and incubated in a water bath open to the air at 37° C. Reactions were terminated at various time points (0, 5, 10, 15, 30, 60 min) by adding equal volume of ice-cold acetonitrile. The samples were stored at −80° C. until LC/MS/MS assays.
(§2) The concentrations of compounds in the incubation mixtures of human or rat liver microsomes were determined by a LC/MS/MS method. The ranges of the linearity in the concentration range were determined for each tested compounds.
(§3) A parallel incubation was performed using denatured microsomes as the negative control, and reactions were terminated at various time points (0, 15, 60 min) after incubation at 37° C.
(§4) Dextromethorphan (70 μM) was selected as the positive control, and reactions were terminated at various time points (0, 5, 10, 15, 30, 60 min) after incubation at 37° C. Both positive and negative control samples were included in each assay to ensure the integrity of the microsomal incubation system.
(§5) The concentrations of compounds in human or rat liver microsome incubations were plotted as a percentage of the relevant zero time point control for each reaction. The in vivo CLint were extrapolated (ref: Naritomi Y, Terashita S, Kimura S, Suzuki A, Kagayama A, Sugiyama Y. Prediction of human hepatic clearance from in vivo animal experiments and in vitro metabolic studies with liver microsomes from animals and humans. Drug Metabolism and Disposition 2001, 29: 1316-1324).

Data set [3] in a line: Compound stability in human liver microsomes. The data set is classed as in vitro ADME. The note with it: for half-life at 5 μM / CLint scaled at 5 μM: pH 7.4; for half-life at 5 μM: read-out: Human T1/2; for CLint scaled at 5 μM: human liver microsomes, in vivo CLint extrapolated. On the procedure:
as §1, §2, §3, §4, §5

[4] abbreviates: rat liver microsomes 0.5 mg protein/mL, compound 5 μM, NADPH 1.0 mM, 37° C.
[5] abbreviates: human liver microsomes 0.5 mg protein/mL, compound 5 μM, NADPH 1.0 mM, 37° C.

One may read the IC50 as the point on the concentration scale where inhibition reaches its midpoint. In data set [1] (iv dose 2 mg/kg), “4-fluoro N (5 (3 (3 hydroxy-3-methylbut-1-yn-1-yl)-[1,2,4]-triazolo[4,3-b]pyridazin-6-yl)-2-methoxypyridin-3-yl)benzenesulfonamide [Ex. 12]” registered an F of 1.3%. In addition, in data set [1] (iv dosing 2 mg/kg), the AUClast was found to be 411 ng·h/mL, the Cl/F is on record as 4.67 L/h/kg, the T1/2 worked out at 4.71 h and the Vss is recorded as 18.42 L/kg. The IC50 at PI3K p110α/p85α (h) came out at 32 nM.

The AUC(0-t) is the area under the concentration-time curve up to a stated or last time point. Broadly, the CLint scaled is a measure of how fast metabolising enzymes remove a compound, apart from limits set by blood flow. In the case of `CC#Cc1cnc2ccc(-c3cnc(OC)c(NS(=O)(=O)c4ccc(F)cc4)c3)nn12` [Ex. 5, 4-fluoro-N-(2-methoxy-5-(3-(prop-1-yn-1-yl)imidazo[1,2-b]pyridazin-6-yl)pyridin-3-yl)benzenesulfonamide], in data set [1] (iv dose 1 mg/kg), the F amounted to 95.6%. In data set [1] (iv dosing 1 mg/kg), the Cl/F is recorded as 0.37 L/h/kg, the AUC(0-t) is 2550 ng·h/mL, the half-life is 524 min and the Vd was found to be 2.29 L/kg. Further, the half-life at 5 μM in data set [2] (setting [4]) was 35.7 min. Also, the CLint scaled at 5 μM in data set [2] is 69.5 mL/min/kg. Also, the IC50 on PI3K p110α/p85α (h) stood at 17 nM. For the same compound, the half-life at 5 μM in data set [3] (setting [5]) was determined as 68.4 min. Moreover, the CLint scaled at 5 μM in data set [3] is 25.4 mL/min/kg.

Regarding `COc1ncc(-c2ccc3ncc(C#CC(C)(C)O)n3n2)cc1NS(=O)(=O)c1ccc(F)cc1F` [Ex. 11, 2,4-difluoro N (5 (3 (3 hydroxy-3-methylbut-1-yn-1-yl)imidazo[1,2-b]pyridazin-6-yl)-2-methoxypyridin-3-yl)benzenesulfonamide], the F in data set [1] (iv dose 1 mg/kg) came out at 115.8%. Besides, in data set [1] (iv dosing 1 mg/kg), the Cl/F is listed as 0.02 L/h/kg, the AUC(0-t) was found to be 40400 ng·h/mL, the half-life is 295 min and the Vd worked out at 0.15 L/kg. Moreover, the IC50 on PI3K p110α/p85α (h) was 8 nM.

Regarding `CC#Cc1cnc2ccc(-c3cnc(OC)c(NS(=O)(=O)c4ccc(F)cc4F)c3)nn12` [Ex. 13, 2,4-difluoro-N-(2-methoxy-5-(3-(prop-1-yn-1-yl)imidazo[1,2-b]pyridazin-6-yl)pyridin-3-yl)benzenesulfonamide], in data set [1] (iv dose 1 mg/kg), the F is 95.8%. Moreover, in data set [1] (iv dosing 1 mg/kg), the Cl/F came to 0.09 L/h/kg, the AUC(0-t) was found to be 11300 ng·h/mL, the half-life was 185 min and the Vd was 0.32 L/kg. Also, the half-life at 5 μM in data set [2] (setting [4]) came to 95.2 min. In addition, the CLint scaled at 5 μM in data set [2] was 26.1 mL/min/kg. The half-life at 5 μM in data set [3] (setting [5]) was determined as 1130 min. The CLint scaled at 5 μM in data set [3] was 1.54 mL/min/kg.

In the case of `COc1ncc(-c2ccc3ncc(C#CC(C)(C)O)n3c2)cc1NS(=O)(=O)c1ccc(F)cc1F` [Ex. 17, 2,4-difluoro-N-(5-(3-(3-hydroxy-3-methylbut-1-yn-1-yl)imidazo[1,2-a]pyridin-6-yl)-2-methoxypyridin-3-yl)benzenesulfonamide], in data set [1] (iv dose 1 mg/kg), the F came to 123.1%. In data set [1] (iv dosing 1 mg/kg), the Cl/F was 0.03 L/h/kg, the AUC(0-t) is 38700 ng·h/mL, the half-life is 318 min and the Vd was 0.17 L/kg. For the same compound, in data set [2] (setting [4]), the half-life at 5 μM is 280 min. For the same compound, the CLint scaled at 5 μM in data set [2] is 8.87 mL/min/kg. The half-life at 5 μM in data set [3] (setting [5]) turned out to be 512 min. In addition, the CLint scaled at 5 μM in data set [3] is 3.4 mL/min/kg.

In data set [1] (iv dose 1 mg/kg), `COc1ncc(-c2ccc3nnc(C#CC(C)O)n3c2)cc1NS(=O)(=O)c1ccc(F)cc1F` (centres unmarked) [Ex. 23, 2,4-difluoro N (5 (3 (3 hydroxybut-1-yn-1-yl)-[1,2,4]-triazolo[4,3-a]pyridin-6-yl)-2-methoxypyridin-3-yl)benzenesulfonamide] yielded an F of 5.9%. Also, in data set [1] (iv dosing 1 mg/kg), the Cl/F worked out at 1.81 L/h/kg, the AUC(0-t) was determined as 561 ng·h/mL, the half-life is 9 min and the Vd came to 0.19 L/kg. Besides, the “Rat T1/2” value in data set [2] (setting [4]) was “∞”. Besides, the “Human T1/2” value in data set [3] (setting [5]) is recorded as “∞”.
